Experimental data: patent US20020192262A1, “1'-Acetoxychavicol acetate for tuberculosis treatment” (National Science and Technology Development Agency, priority 2001, published 2002)

Test system: 30 clinical strains of M. tuberculosis isolated from patients in Thailand
Experiment: Microplate Alamar Blue assay, clinical strains
Type: cell-based
Settings: Mycobacterium tuberculosis, including isoniazid and/or rifampin resistant strains, read-out: MICs against clinical strains of M. tuberculosis

Structure (SMILES): C=CC(OC(C)=O)c1ccc(OC(C)=O)cc1 (stereo not shown) [1′-acetoxychavicol acetate, 1′-Acetoxychavicol acetate]
- MIC: 0.1 to 0.5 µg/mL
